The text below walks through data of patent publication US7592344B2, “NK1 and NK2-antagonists and compositions and methods of using the same” (Solvay Pharmaceuticals GmbH, priority 2005, dated 2009).

Assay [1] addresses T1, NK2 receptors (Cavia porcellus, UniProt Q64077).
T1 construct: from tissue; host or cells: whole animal: anesthetized Pirbright-White guinea pigs
T1 sequence (Q64077 1-402): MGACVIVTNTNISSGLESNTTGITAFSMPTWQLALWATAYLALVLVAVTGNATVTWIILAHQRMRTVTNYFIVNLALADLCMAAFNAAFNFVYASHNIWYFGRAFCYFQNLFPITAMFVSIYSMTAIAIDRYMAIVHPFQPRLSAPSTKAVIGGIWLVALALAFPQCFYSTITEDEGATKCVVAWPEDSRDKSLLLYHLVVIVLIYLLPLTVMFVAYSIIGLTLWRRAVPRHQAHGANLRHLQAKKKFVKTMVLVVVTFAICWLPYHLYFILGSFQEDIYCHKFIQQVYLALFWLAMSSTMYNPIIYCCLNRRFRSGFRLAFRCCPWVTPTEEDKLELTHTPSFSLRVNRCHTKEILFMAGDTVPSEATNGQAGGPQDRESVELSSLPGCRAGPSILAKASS
As to the kind of experiment: Functional NK2 antagonism on isolated guinea pig gall-bladder (inhibition of NKA-induced contraction). Conditions: NKA 0.1 μmol/l, two hours' incubation, IC50 in mol/l. As for the experimental part:
4. Determination of the Functional […] of the Test Substances on Isolated Guinea Pig Tissue In Vitro.
The NK2 receptor-antagonizing action of the test substances was determined on isolated gall-bladder preparations from Pirbright-White guinea pigs, held in an oxygen-saturated nutrient solution. To this end, the preparations were fastened on one hand in the nutrient solution to organ holders and on the other hand on a force meter by a thread.
The concentration of the test substances was increased iteratively in the subsequent experiments as a function of the result in logarithmic whole or half steps, until at least one concentration above or below 50% inhibition of contraction was determined (up to at most 10^−5 mol/l). For each concentration, the average value of inhibition of contraction was calculated from 2 to 4 preparations. In each case, the concentration of half-maximum inhibition (IC50) per test substance was calculated as characteristic variable. In each case the logarithmized value of the IC50 per test substance is given as plC50 in [mol/l].

Assay [2] has as its target T2, human NK2 receptor (Homo sapiens, UniProt P21452).
T2 sequence (P21452 1-398): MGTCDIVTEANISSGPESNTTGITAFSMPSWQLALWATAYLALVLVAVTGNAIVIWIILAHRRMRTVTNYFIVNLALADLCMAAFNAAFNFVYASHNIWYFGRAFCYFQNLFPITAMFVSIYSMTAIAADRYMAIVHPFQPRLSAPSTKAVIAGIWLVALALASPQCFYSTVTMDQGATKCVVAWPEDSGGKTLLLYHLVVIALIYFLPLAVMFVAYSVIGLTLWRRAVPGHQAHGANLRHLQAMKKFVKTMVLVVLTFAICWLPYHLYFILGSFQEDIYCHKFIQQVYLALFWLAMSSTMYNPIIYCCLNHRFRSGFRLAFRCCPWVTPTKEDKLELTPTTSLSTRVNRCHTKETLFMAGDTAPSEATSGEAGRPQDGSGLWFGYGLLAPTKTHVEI
As to the kind of experiment: Binding power to NK2 receptors in vitro ([3H]-SR 48968 displacement, CHO cell membranes). On the set-up: expressed in transfected cells; host or cells: CHO cells (membrane preparation). Conditions: human NK2 receptor in CHO membranes, ligand [3H]-SR 48968, 90 min incubation. As for the experimental part: The affinity of the test substances to human NK2 receptors was measured in vitro. The ability of the test substances to displace the selective NK2 receptor antagonist SR 48968 (=saredutant) used as reference ligand from its corresponding bond was determined.
The receptor binding studies were carried out with radioactively marked [^3H]-SR 48968 (from Amersham) as ligand. For the binding test, different samples of a membrane preparation of CHO cells (=egg cells of the Chinese hamster, […]), which express the human NK2 receptor (for preparation, see N. P. Gerard et al., Journal of Biological Chemistry 265/33 (1990) 20455-20462), were incubated for 90 minutes (=min.) with a solution of the marked ligand, with the incubation mixtures containing no test substance or additions of different concentrations of test substance. Then in each case the membrane-bound ligands in the samples were separated from free ligands by filtration. The fraction remaining in the filter was washed several times with buffer solution, before its radioactivity was measured using a liquid scintillation counter. That concentration which effects half-maximum displacement of the bound reference ligand was determined as IC50 of the respective test substance. The inhibition constant (Ki value) of the test substance was calculated from the respective IC50 value, and was stated as the negative logarithmized value thereof (pKi).
If several measurements were performed, the average thereof was listed each time. The pKi value is a measurement of the affinity of the test substances to human NK2 receptors.

Assay [3] deals with T3, NK1 receptors (Cavia porcellus, UniProt P30547).
T3 construct: from tissue; host or cells: whole animal: anesthetized Pirbright-White guinea pigs
T3 sequence (P30547 whole entry): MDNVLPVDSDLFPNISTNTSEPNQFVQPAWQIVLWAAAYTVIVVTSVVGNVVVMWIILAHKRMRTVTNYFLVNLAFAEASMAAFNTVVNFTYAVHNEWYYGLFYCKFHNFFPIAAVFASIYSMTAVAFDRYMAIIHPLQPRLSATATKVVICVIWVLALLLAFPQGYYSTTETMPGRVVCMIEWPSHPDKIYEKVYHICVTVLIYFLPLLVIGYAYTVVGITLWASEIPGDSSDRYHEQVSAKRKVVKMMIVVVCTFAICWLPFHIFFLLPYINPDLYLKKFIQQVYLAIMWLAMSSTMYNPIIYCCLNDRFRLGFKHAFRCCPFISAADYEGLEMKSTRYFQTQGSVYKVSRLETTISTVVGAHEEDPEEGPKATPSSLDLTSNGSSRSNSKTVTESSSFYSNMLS
As to the kind of experiment: Functional NK1 antagonism on isolated guinea pig aorta rings (inhibition of Substance P-induced relaxation). The note with it: phenylephrine tone, 0.01 μmol Substance P. As for the experimental part:
3. Determining of the Functional NK1 Antagonism of the Test Substances on Isolated Guinea Pig Tissue In Vitro
The action antagonistic to NK1 receptors of the test substances was measured in vitro on isolated ring preparations, kept in an oxygenated nutrient solution, of the aortas of Pirbright-White guinea pigs.
In order to measure the contraction of the vessel muscles, the preparations were fixed to a hook, joined by a thread to a force measuring apparatus and the contractions were recorded in each case on a plotter. The aorta preparations were tonicized with phenylephrine. […] The relaxations before and after the administration of the test substance were qualified in percent. The effective concentration of the half maximum inhibition of the relaxation of the tone (=EC50) was calculated. The negative common logarithm of the EC50 value (=pEC50) was given as characteristic variable. The pEC50 value is a measurement of the functional effectiveness of the test substances on NK1 receptors.

The target of assay [4] is human NK1 receptor (Homo sapiens, UniProt P25103). As to the kind of experiment: Binding power to NK1 receptors in vitro ([3H]-Substance P displacement, CHO cell membranes). On the set-up: expressed in transfected cells; host or cells: CHO cells (membrane preparation). The note with it: human NK1 receptor in CHO membranes, ligand [3H]-Substance P. The procedure:
1. Determination of the Binding Power of the Test Substances to NK1 Receptors In Vitro.
Affinity of the test substances to human NK1 receptors was measured in vitro.
The receptor binding studies were performed with [^3H]-Substance P as ligand. For the binding test, different samples of a membrane preparation of CHO cells (=egg cells of the Chinese hamster, […]), which express the human NK1 receptor (“Accession Number” of the associated nucleic acid sequence=M74290; “Accession Number” of the associated protein sequence=P25103; cf. Takeda, Y.; Chou, K. B., Takeda, J.; Sachais, B. S. and Krause, J. E; Biochemical and Biophysical Research Communications, 179(3) (1991) 1232-1240), were incubated with a solution of the marked ligand, with the incubation mixtures containing no test substance or additions of different concentration of test substance. Then, separation of bound and free ligands was performed in each of the samples with the aid of glass-fiber filtration. The fraction remaining in the filter was washed several times with buffer solution and then the radioactivity of the fraction remaining in the filter was measured using a beta scintillation counter.
For the compounds of Examples 1 to 14, that concentration which effects half maximum displacement of the bound ligand was determined as IC50 of the respective test substance. From this, the corresponding inhibition constant (Ki value) of the test substance was calculated, and was stated as the negative common logarithm of the Ki value (=pKi value) The pKi value is a measurement of the affinity of the test substances to human NK1 receptors.

Sequence of human NK1 receptor (P25103 whole entry): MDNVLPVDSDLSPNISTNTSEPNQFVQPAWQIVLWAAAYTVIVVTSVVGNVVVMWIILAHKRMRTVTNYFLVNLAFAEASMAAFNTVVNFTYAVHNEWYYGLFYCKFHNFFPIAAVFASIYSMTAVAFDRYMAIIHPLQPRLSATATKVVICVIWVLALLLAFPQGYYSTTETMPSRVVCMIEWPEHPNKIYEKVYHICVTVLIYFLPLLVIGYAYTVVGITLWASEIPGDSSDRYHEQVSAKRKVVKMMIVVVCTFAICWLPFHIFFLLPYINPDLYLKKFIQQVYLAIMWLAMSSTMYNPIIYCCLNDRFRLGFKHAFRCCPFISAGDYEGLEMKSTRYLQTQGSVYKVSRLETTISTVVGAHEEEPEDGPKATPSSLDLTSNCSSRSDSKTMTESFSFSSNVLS

Take `CN(CC(CCN1CCN(C(c2ccsc2)C(O)C(O)C(O)CO)CC1)c1ccc(Cl)c(Cl)c1)C(=O)c1cc(C#N)cc2ccccc12` (stereo not shown) [Compound 5]: the pIC50 (usually the IC50 on a negative log10 scale, so that one unit is a factor of ten) in assay [1] was determined as 7.5. Besides, the “pKi (NK2)” value in assay [2] is listed as 7.3. Moreover, in assay [3], the pEC50 – broadly, the negative decadic logarithm of the EC50, by convention in mol/L – amounted to 10.0. For the same compound, the “pKi (NK1)” value in assay [4] is recorded as 8.9.
